Test results as given in patent US20260242419A1, “A CYCLIC PEPTIDE FOR TRAPPING INTERLEUKIN-1 BETA” (Merck Sharp & Dohme LLC, priority 2023, published 2026).
pIC50: −log10 of the molar value. Non-standard residues stand in square brackets, D forms with d. Residues, ends and D or L forms follow the SMILES beside them. dPro(4R-(4-pyridylmethyl)) = O=C(O)[C@H]1C[C@@H](Cc2ccncc2)CN1; dPro(3S-(4-Br-benzyl)) = O=C(O)[C@@H]1NCC[C@@H]1Cc1ccc(Br)cc1; Trp(βS-Me,4-F) = C[C@@H](c1c[nH]c2cccc(F)c12)[C@H](N)C(=O)O; Bip(4'-COOH) = N[C@@H](Cc1ccc(-c2ccc(C(=O)O)cc2)cc1)C(=O)O; Ala(1-bicyclo(1.1.1)pentyl) = N[C@@H](CC12CC(C1)C2)C(=O)O; dPro(4R-Bzl(4-F)) = O=C(O)[C@H]1C[C@@H](Cc2ccc(F)cc2)CN1; 1Nal(3S-Me) = C[C@@H](c1cccc2ccccc12)[C@H](N)C(=O)O; Ala(morpholin-4-yl) = N[C@@H](CN1CCOCC1)C(=O)O; Ala(pyrimidin-5-yl) = N[C@@H](Cc1cncnc1)C(=O)O; Phe(4-COOH) = N[C@@H](Cc1ccc(C(=O)O)cc1)C(=O)O; Pro(cis-4-F) = O=C(O)[C@@H]1C[C@H](F)CN1; cisHyp = O=C(O)[C@@H]1C[C@H](O)CN1; d(αMeD) = C[C@@](N)(CC(=O)O)C(=O)O; 4Pal = N[C@@H](Cc1ccncc1)C(=O)O; Cba = N[C@@H](CC1CCC1)C(=O)O; αMeK = C[C@](N)(CCCCN)C(=O)O; Dab = NCC[C@H](N)C(=O)O; Aib = CC(C)(N)C(=O)O

molecular target: T1, IL-1β (Homo sapiens, UniProt P01584); test: IL-6 assay in MRC5 cells: inhibition of IL-1β induced IL-6 secretion (AlphaLISA); type: cell-based; settings: inhibition of IL-1β induced IL-6 secretion in MRC5 cells; read-out: MRC5 IC50
T1 construct: purchased BioLegend 579404
T1 sequence (P01584 117-269): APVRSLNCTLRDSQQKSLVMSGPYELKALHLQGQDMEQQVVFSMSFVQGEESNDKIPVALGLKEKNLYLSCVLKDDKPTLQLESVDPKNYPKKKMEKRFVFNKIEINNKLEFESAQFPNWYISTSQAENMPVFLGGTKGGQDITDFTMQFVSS
In short: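 Compound was pre-incubated 1 h at ambient temperature with recombinant human IL-1β at 2λ EC80 before adding human lung fibroblast MRC5 cells (3000/well) in EMEM with 0.025% BSA. After overnight culture at 37 °C, 5% CO2, secreted IL-6 in conditioned medium was measured by AlphaLISA; IC50 from 4-parameter logistic fits.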

Row | SMILES | pIC50
1 | C[C@@H](c1cccc2ccccc12)[C@@H]1NC(=O)[C@@H]2C[C@H](F)CN2C(=O)CNC(=O)[C@H](Cc2ccc(C(=O)O)cc2)NC(=O)[C@H](Cc2ccncc2)NC(=O)[C@H](Cc2ccc(-c3ccc(C(=O)O)cc3)cc2)NC(=O)[C@H]2[C@@H](Cc3ccc(Br)cc3)CCN2C(=O)CNC(=O)[C@H](CCN)NC(=O)[C@H](CCC(N)=O)NC(=O)[C@H](Cc2cncnc2)NC(=O)C(C)(C)NC(=O)[C@H](Cc2c[nH]c3ccccc23)NC(=O)[C@H](CCC(=O)O)NC(=O)C(C)(C)NC1=O [Example 153] (cyclo([Bip(4'-COOH)][4Pal][Phe(4-COOH)]G[Pro(cis-4-F)][1Nal(3S-Me)][Aib]EW[Aib][Ala(pyrimidin-5-yl)]Q[Dab]G[dPro(3S-(4-Br-benzyl))])) | 10.72
2 | C[C@@H](c1c[nH]c2cccc(F)c12)[C@@H]1NC(=O)[C@@H]2C[C@H](F)CN2C(=O)CNC(=O)[C@H](Cc2ccc(C(=O)O)cc2)NC(=O)[C@H](Cc2ccncc2)NC(=O)[C@H](Cc2ccc(-c3ccc(C(=O)O)cc3)cc2)NC(=O)[C@H]2C[C@@H](Cc3ccncc3)CN2C(=O)CNC(=O)[C@H](CCN)NC(=O)[C@H](CCC(N)=O)NC(=O)[C@H](Cc2cncnc2)NC(=O)[C@@](C)(CC(=O)O)NC(=O)[C@H](Cc2c[nH]c3ccccc23)NC(=O)[C@H](CO)NC(=O)C(C)(C)NC1=O [Example 154] (cyclo([Bip(4'-COOH)][4Pal][Phe(4-COOH)]G[Pro(cis-4-F)][Trp(βS-Me,4-F)][Aib]SW[d(αMeD)][Ala(pyrimidin-5-yl)]Q[Dab]G[dPro(4R-(4-pyridylmethyl))])) | 10.96
3 | C[C@@H](c1c[nH]c2cccc(F)c12)[C@@H]1NC(=O)[C@@H]2C[C@H](F)CN2C(=O)CNC(=O)[C@H](Cc2ccc(C(=O)O)cc2)NC(=O)[C@H](CC23CC(C2)C3)NC(=O)[C@H](Cc2ccc(-c3ccc(C(=O)O)cc3)cc2)NC(=O)[C@H]2C[C@@H](Cc3ccncc3)CN2C(=O)CNC(=O)[C@H](CCN)NC(=O)[C@H](CCC(N)=O)NC(=O)[C@H](Cc2cncnc2)NC(=O)[C@@](C)(CC(=O)O)NC(=O)[C@H](Cc2c[nH]c3ccccc23)NC(=O)[C@H](CO)NC(=O)C(C)(C)NC1=O [Example 155] (cyclo([Bip(4'-COOH)][Ala(1-bicyclo(1.1.1)pentyl)][Phe(4-COOH)]G[Pro(cis-4-F)][Trp(βS-Me,4-F)][Aib]SW[d(αMeD)][Ala(pyrimidin-5-yl)]Q[Dab]G[dPro(4R-(4-pyridylmethyl))])) | 10.96
4 | C[C@@H](c1c[nH]c2cccc(F)c12)[C@@H]1NC(=O)[C@@H]2C[C@H](F)CN2C(=O)CNC(=O)[C@H](Cc2ccc(C(=O)O)cc2)NC(=O)[C@H](Cc2ccncc2)NC(=O)[C@H](Cc2ccc(-c3ccc(C(=O)O)cc3)cc2)NC(=O)[C@H]2C[C@@H](Cc3ccncc3)CN2C(=O)CNC(=O)[C@H](CO)NC(=O)[C@H](CCC(N)=O)NC(=O)[C@H](Cc2cncnc2)NC(=O)[C@@](C)(CC(=O)O)NC(=O)[C@H](Cc2c[nH]c3ccccc23)NC(=O)[C@H](CO)NC(=O)C(C)(C)NC1=O [Example 156] (cyclo([Bip(4'-COOH)][4Pal][Phe(4-COOH)]G[Pro(cis-4-F)][Trp(βS-Me,4-F)][Aib]SW[d(αMeD)][Ala(pyrimidin-5-yl)]QSG[dPro(4R-(4-pyridylmethyl))])) | 10.82
5 | C[C@@H](c1c[nH]c2cccc(F)c12)[C@@H]1NC(=O)[C@@H]2C[C@H](O)CN2C(=O)CNC(=O)[C@H](Cc2ccc(C(=O)O)cc2)NC(=O)[C@H](CC23CC(C2)C3)NC(=O)[C@H](Cc2ccc(-c3ccc(C(=O)O)cc3)cc2)NC(=O)[C@H]2C[C@@H](Cc3ccncc3)CN2C(=O)CNC(=O)[C@H](CO)NC(=O)[C@H](CCC(N)=O)NC(=O)[C@H](Cc2cncnc2)NC(=O)[C@@](C)(CC(=O)O)NC(=O)[C@H](Cc2c[nH]c3ccccc23)NC(=O)[C@H](CO)NC(=O)C(C)(C)NC1=O [Example 157] (cyclo([Bip(4'-COOH)][Ala(1-bicyclo(1.1.1)pentyl)][Phe(4-COOH)]G[cisHyp][Trp(βS-Me,4-F)][Aib]SW[d(αMeD)][Ala(pyrimidin-5-yl)]QSG[dPro(4R-(4-pyridylmethyl))])) | 10.42
6 | C[C@@H](c1c[nH]c2cccc(F)c12)[C@@H]1NC(=O)[C@@H]2C[C@H](F)CN2C(=O)CNC(=O)[C@H](Cc2ccc(C(=O)O)cc2)NC(=O)[C@H](CC23CC(C2)C3)NC(=O)[C@H](Cc2ccc(-c3ccc(C(=O)O)cc3)cc2)NC(=O)[C@H]2C[C@@H](Cc3ccncc3)CN2C(=O)CNC(=O)[C@H](CO)NC(=O)[C@H](CCC(N)=O)NC(=O)[C@H](Cc2cncnc2)NC(=O)[C@@](C)(CC(=O)O)NC(=O)[C@H](Cc2c[nH]c3ccccc23)NC(=O)[C@H](CO)NC(=O)C(C)(C)NC1=O [Example 158] (cyclo([Bip(4'-COOH)][Ala(1-bicyclo(1.1.1)pentyl)][Phe(4-COOH)]G[Pro(cis-4-F)][Trp(βS-Me,4-F)][Aib]SW[d(αMeD)][Ala(pyrimidin-5-yl)]QSG[dPro(4R-(4-pyridylmethyl))])) | 10.89
7 | C[C@@H](c1c[nH]c2cccc(F)c12)[C@@H]1NC(=O)[C@@H]2C[C@H](O)CN2C(=O)CNC(=O)[C@H](Cc2ccc(C(=O)O)cc2)NC(=O)[C@H](Cc2ccncc2)NC(=O)[C@H](Cc2ccc(-c3ccc(C(=O)O)cc3)cc2)NC(=O)[C@H]2C[C@@H](Cc3ccncc3)CN2C(=O)CNC(=O)[C@H](CCN)NC(=O)[C@H](CCC(N)=O)NC(=O)[C@H](Cc2cncnc2)NC(=O)[C@@](C)(CC(=O)O)NC(=O)[C@H](Cc2c[nH]c3ccccc23)NC(=O)[C@H](CO)NC(=O)C(C)(C)NC1=O [Example 159] (cyclo([Bip(4'-COOH)][4Pal][Phe(4-COOH)]G[cisHyp][Trp(βS-Me,4-F)][Aib]SW[d(αMeD)][Ala(pyrimidin-5-yl)]Q[Dab]G[dPro(4R-(4-pyridylmethyl))])) | 10.89
8 | C[C@@H](c1c[nH]c2cccc(F)c12)[C@@H]1NC(=O)[C@@H]2C[C@H](O)CN2C(=O)CNC(=O)[C@H](Cc2ccc(C(=O)O)cc2)NC(=O)[C@H](CC23CC(C2)C3)NC(=O)[C@H](Cc2ccc(-c3ccc(C(=O)O)cc3)cc2)NC(=O)[C@H]2C[C@@H](Cc3ccncc3)CN2C(=O)CNC(=O)[C@H](CCN)NC(=O)[C@H](CCC(N)=O)NC(=O)[C@H](Cc2cncnc2)NC(=O)[C@@](C)(CC(=O)O)NC(=O)[C@H](Cc2c[nH]c3ccccc23)NC(=O)[C@H](CO)NC(=O)C(C)(C)NC1=O [Example 160] (cyclo([Bip(4'-COOH)][Ala(1-bicyclo(1.1.1)pentyl)][Phe(4-COOH)]G[cisHyp][Trp(βS-Me,4-F)][Aib]SW[d(αMeD)][Ala(pyrimidin-5-yl)]Q[Dab]G[dPro(4R-(4-pyridylmethyl))])) | 10.64

Other lines, results leading:

Row | pIC50 | SMILES
9 | 10.72 | C[C@@H](c1c[nH]c2cccc(F)c12)[C@@H]1NC(=O)[C@@H]2C[C@H](O)CN2C(=O)CNC(=O)[C@H](Cc2ccc(C(=O)O)cc2)NC(=O)[C@H](Cc2ccncc2)NC(=O)[C@H](Cc2ccc(-c3ccc(C(=O)O)cc3)cc2)NC(=O)[C@H]2C[C@@H](Cc3ccncc3)CN2C(=O)CNC(=O)[C@H](CO)NC(=O)[C@H](CCC(N)=O)NC(=O)[C@H](Cc2cncnc2)NC(=O)[C@@](C)(CC(=O)O)NC(=O)[C@H](Cc2c[nH]c3ccccc23)NC(=O)[C@H](CO)NC(=O)C(C)(C)NC1=O [Example 161] (cyclo([Bip(4'-COOH)][4Pal][Phe(4-COOH)]G[cisHyp][Trp(βS-Me,4-F)][Aib]SW[d(αMeD)][Ala(pyrimidin-5-yl)]QSG[dPro(4R-(4-pyridylmethyl))]))
10 | 10.52 | C[C@@H](c1c[nH]c2cccc(F)c12)[C@@H]1NC(=O)[C@@H]2C[C@H](F)CN2C(=O)CNC(=O)[C@H](Cc2ccc(C(=O)O)cc2)NC(=O)[C@H](CC2CCC2)NC(=O)[C@H](Cc2ccc(-c3ccc(C(=O)O)cc3)cc2)NC(=O)[C@H]2C[C@@H](Cc3ccncc3)CN2C(=O)CNC(=O)[C@H](CCN)NC(=O)[C@H](CCC(N)=O)NC(=O)[C@H](Cc2cncnc2)NC(=O)C(C)(C)NC(=O)[C@H](Cc2c[nH]c3ccccc23)NC(=O)[C@H](CO)NC(=O)C(C)(C)NC1=O [Example 163] (cyclo([Bip(4'-COOH)][Cba][Phe(4-COOH)]G[Pro(cis-4-F)][Trp(βS-Me,4-F)][Aib]SW[Aib][Ala(pyrimidin-5-yl)]Q[Dab]G[dPro(4R-(4-pyridylmethyl))]))
11 | 10.41 | C[C@@H](c1c[nH]c2cccc(F)c12)[C@@H]1NC(=O)[C@@H]2C[C@H](O)CN2C(=O)CNC(=O)[C@H](Cc2ccc(C(=O)O)cc2)NC(=O)[C@H](CC2CCC2)NC(=O)[C@H](Cc2ccc(-c3ccc(C(=O)O)cc3)cc2)NC(=O)[C@H]2C[C@@H](Cc3ccncc3)CN2C(=O)CNC(=O)[C@H](CCN)NC(=O)[C@H](CCC(N)=O)NC(=O)[C@H](Cc2cncnc2)NC(=O)[C@@](C)(CC(=O)O)NC(=O)[C@H](Cc2c[nH]c3ccccc23)NC(=O)[C@H](CO)NC(=O)C(C)(C)NC1=O [Example 164] (cyclo([Bip(4'-COOH)][Cba][Phe(4-COOH)]G[cisHyp][Trp(βS-Me,4-F)][Aib]SW[d(αMeD)][Ala(pyrimidin-5-yl)]Q[Dab]G[dPro(4R-(4-pyridylmethyl))]))
12 | 10.66 | C[C@@H](c1c[nH]c2cccc(F)c12)[C@@H]1NC(=O)[C@@H]2C[C@H](F)CN2C(=O)CNC(=O)[C@H](Cc2ccc(C(=O)O)cc2)NC(=O)[C@H](CC23CC(C2)C3)NC(=O)[C@H](Cc2ccc(-c3ccc(C(=O)O)cc3)cc2)NC(=O)[C@H]2C[C@@H](Cc3ccc(F)cc3)CN2C(=O)CNC(=O)[C@H](CCN)NC(=O)[C@H](CCC(N)=O)NC(=O)[C@H](CN2CCOCC2)NC(=O)[C@](C)(CCCCN)NC(=O)[C@H](Cc2c[nH]c3ccccc23)NC(=O)[C@H](CCC(=O)O)NC(=O)C(C)(C)NC1=O [Example 165] (cyclo([Bip(4'-COOH)][Ala(1-bicyclo(1.1.1)pentyl)][Phe(4-COOH)]G[Pro(cis-4-F)][Trp(βS-Me,4-F)][Aib]EW[αMeK][Ala(morpholin-4-yl)]Q[Dab]G[dPro(4R-Bzl(4-F))]))
